# Results from ChEMBL document CHEMBL5241061, “Advance of structural modification of nucleosides scaffold” (Eur J Med Chem, 2021).
# Experiments:
# Assay type in all cases: functional, organism-based
# [1] = system: Human immunodeficiency virus; test: Antiviral activity against Human immunodeficiency virus infected in MT4 cell incubated for 72 hrs by CPE based microscopic assay; conditions: Human immunodeficiency virus 1, MT4, 72 h
# [2] = system: Human immunodeficiency virus; test: Antiviral activity against Human immunodeficiency virus; conditions: Human immunodeficiency virus 1
# Hepatitis B virus = test: Antiviral activity against Hepatitis B virus
SMILES,EC50 [1] [µM],EC50 [2] [µM],EC50 (Hepatitis B virus) [µM]
Cc1cn(C2CC(N=[N+]=[N-])C(CO[PH](=O)OC3CCC4(C)C(C=CC5C4CCC4(C)C(C(C)CCCC(C)C)CCC54)C3)O2)c(=O)[nH]c1=O (configuration not stated),0.001,,
Nc1ncnc2c1ncn2[C@@H]1CC[C@H](CO)O1,,8.2,6
Nc1ncnc2c1ncn2[C@@H]1C=C[C@H](CO)O1,,0.38,1.2
Nc1ncnc2c1ncn2[C@H]1O[C@@H](CO)[C@H](O)C1(F)F,,3.4,20
